Measurements reported in patent US11426405B2, “Inhibition of JAK-STAT signaling inhibits formation of neutrophil extracellular traps (NETs)” (The Brigham and Women's Hospital, Inc., priority 2017, dated 2022).
Where “and” joins values, the source holds several entries; their conditions need not be identical. Equal entries are not always repeated.

Legend:
[1] = tested on: neutrophils from patients with MPNs; assay: NET formation in neutrophils from MPN patients receiving a JAK inhibitor; format: cell-based, human; details: individual JAK inhibitor-treated MPN patients; 4 μM ionomycin stimulation; some patients also on ASA or Hydrea
From the text: Whole blood was collected into ethylenediaminetetraacetic acid (EDTA)-coated tubes. Patients and controls were excluded if they had conditions that are known or suspected to affect NET formation such as active infection, active cancer (37), history of an autoimmune disease (38), treatment with immunosuppressive or anti-inflammatory drugs or history of diabetes (29). In addition, patients with recent history of infection, trauma or surgery (3 months before blood draw) were excluded. Therapy with acetylsalicylic acid (aspirin), hydroxyurea or anagrelide was allowed. […]
Neutrophil isolation and NET formation were carried out as previously described (39). […] Purity of cells was >95% as determined by Wright-Giemsa staining (FIG. 5B). For the screening NET assay, NET-bound neutrophil elastase was quantified using an available commercial kit according to manufacturer's instructions (Cayman chemical). […]
Fixed cells were processed as detailed above. Immunostaining, fluorescence microscopy and NET quantification procedures were similar for human and mouse specimens. […]
Images were acquired on an Axiovert 200M wide-field fluorescence microscope (Zeiss) coupled to an AxioCam MR3 monochromatic CCD camera (Zeiss) using a Zeiss Plan-Neofluar 20×/0.4 Con Ph2 objective lens with the Zeiss AxioVision software (version 4.6.3.0). […]

[2] = tested on: Jak2^WT and Jak2^V617F mice; assay: Venous stenosis model: partial ligation of the inferior vena cava; format: in vivo, mouse; details: for Thrombus formation rate (clots/mice): DNase 50 μg i.p. and 10 μg i.v. after surgery
Description: Sections were allowed to come to room temperature, before rinsing in PBS with 0.1% Tween 20 (PBST). Sections were blocked for 1 hour at room temperature with 10% FBS in PBST in a humidified chamber. Sections were incubated in the same chamber overnight at 4° C. with the primary antibodies described above against Ly6G and H3^cit in 10% FBS in PBST. Slides were rinsed in PBST before incubating with the secondary antibody under the same conditions as used for the primary antibody (goat anti-rat Ig (IgG) (Alexa555, 1.5 μg/mL) or donkey anti-rabbit IgG (Alexa647, 1.5 μg/mL). After a further wash in PBST sections were stained with DAPI and mounted as described above. Sections were visualized using Axiolmager D1 (Carl Zeiss Microscopy) and images taken using Axiocam MRc Camera (Carl Zeiss Microscopy). Zen software 2.3 (version 13) was used to analyze images. For the final images used in the figures, Alexa647 was represented using green.
After bone marrow harvest, c-Kit positive marrow cells were obtained from VavCre/Jak2^V617F KI mice using CD117 Microbeads according to manufacturer's instructions (Miltenyi Bitotec).
DNase 1 (Pulmozyme, Genentech) was diluted in sterile saline and injected immediately after surgery (50 μg intraperitoneally and 10 μg intravenously via tail vein). […] Mice were assessed for thrombosis at 4 hours.

| Molecule | % NET formation [1] | Thrombosis rate at 2 hours post-IVC ligation ([2]; Jak2^V617F mice, ruxolitinib 90 mg/kg twice a day for 72 hours, vehicle 45%) | Thrombosis rate at 4 hours post-IVC ligation ([2]; Jak2^V617F mice, ruxolitinib 90 mg/kg twice a day for 72 hours, vehicle 71%) | Thrombus formation rate (clots/mice) ([2]; Jak2^V617F mice, vehicle 5/7, p=0.007) | Thrombus formation rate (clots/mice) ([2]; Jak2^WT mice, vehicle 5/8, p=0.06) |
| --- | --- | --- | --- | --- | --- |
| C[C@H](Nc1cc(-c2cnn(C)c2)cc(Nc2cnccn2)n1)c1ccc(F)cc1 [NS-018] | 6.9% | – | – | – | – |
| N#CC[C@H](C1CCCC1)n1cc(-c2ncnc3[nH]ccc23)cn1 [Ruxolitinib] | 1.5% and 5.9% and 5.4% and 5.5% | 0% | 21% | – | – |
| DNase: deoxyribonuclease (DNase; Pulmozyme, Genentech), disrupts NET structures (protein, UniProt P24855 23-282, looked up) Deoxyribonuclease-1: LKIAAFNIQTFGETKMSNATLVSYIVQILSRYDIALVQEVRDSHLTAVGKLLDNLNQDAPDTYHYVVSEPLGRNSYKERYLFVYRPDQVSAVDSYYYDDGCEPCGNDTFNREPAIVRFFSRFTEVREFAIVPLHAAPGDAVAEIDALYDVYLDVQEKWGLEDVMLMGDFNAGCSYVRPSQWSSIRLWTSPTFQWLIPDSADTTATPTHCAYDRIVVAGMLLRGAVVPDSALPFNFQAAYGLSDQLAQAISDHYPVEVMLK | – | – | – | 0/8 | 1/7 |
